For five compounds, IC50 results are on record in article PMC3915329 (Journal of Ginseng Research, 2013).

Molecules are shown by their SMILES. pIC50: −log10 of the molar value.

The term pIC50 denotes the IC50 on a negative log10 scale, so that one unit is a factor of ten. Read a high pIC50 as a low IC50.

This experiment addresses T1, protein tyrosine phosphatase 1B (PTP1B) (Homo sapiens, UniProt P18031).
T1 sequence (P18031 1-435): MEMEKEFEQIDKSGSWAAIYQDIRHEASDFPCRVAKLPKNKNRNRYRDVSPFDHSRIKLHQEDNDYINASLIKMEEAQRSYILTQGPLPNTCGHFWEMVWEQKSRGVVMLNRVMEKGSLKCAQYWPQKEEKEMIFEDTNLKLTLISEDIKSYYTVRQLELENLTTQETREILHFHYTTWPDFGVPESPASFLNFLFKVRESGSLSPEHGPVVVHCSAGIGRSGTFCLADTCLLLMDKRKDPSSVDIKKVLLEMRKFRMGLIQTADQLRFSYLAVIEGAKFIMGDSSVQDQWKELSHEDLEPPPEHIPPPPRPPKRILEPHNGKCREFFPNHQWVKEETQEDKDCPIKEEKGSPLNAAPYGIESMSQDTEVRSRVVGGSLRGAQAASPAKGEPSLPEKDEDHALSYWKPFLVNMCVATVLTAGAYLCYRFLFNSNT
Kind of experiment: Inhibitory activity against PTP1B assay. Format: biochemical.
As for `CC1(C)CCC[C@](C)([C@H]2CC[C@]3(C)[C@@H]2[C@H](O)C[C@@H]2[C@@]4(C)CC[C@H](O)C(C)(C)[C@@H]4CC[C@]23C)O1` [Compound 18, panaxadiol], the pIC50 was below 4.00.
For the compound `CC(C)=CCC[C@](C)(O[C@@H]1O[C@H](CO[C@@H]2O[C@H](CO)[C@@H](O)[C@H](O)[C@H]2O)[C@@H](O)[C@H](O)[C@H]1O)[C@H]1CC[C@]2(C)[C@@H]1[C@H](O)C[C@@H]1[C@@]3(C)CC[C@H](O[C@@H]4O[C@H](CO)[C@@H](O)[C@H](O)[C@H]4O[C@@H]4O[C@H](CO)[C@@H](O)[C@H](O)[C@H]4O)C(C)(C)[C@@H]3CC[C@]12C` [Compound 5, ginsenoside-Rb1], the pIC50 was below 4.00.
Take `CC(C)=CCC[C@](C)(O[C@@H]1O[C@H](CO[C@@H]2O[C@@H](CO)[C@H](O)[C@H]2O)[C@@H](O)[C@H](O)[C@H]1O)[C@H]1CC[C@]2(C)[C@@H]1[C@H](O)C[C@@H]1[C@@]3(C)CC[C@H](O[C@@H]4O[C@H](CO)[C@@H](O)[C@H](O)[C@H]4O[C@@H]4O[C@H](CO)[C@@H](O)[C@H](O)[C@H]4O)C(C)(C)[C@@H]3CC[C@]12C` [Compound 8, ginsenoside-Rc]: the pIC50 was below 4.00.
The same measure for `CC(C)=CCC[C@](C)(O[C@@H]1O[C@H](CO)[C@@H](O)[C@H](O)[C@H]1O)[C@H]1CC[C@]2(C)[C@@H]1[C@H](O)C[C@@H]1[C@@]3(C)CC[C@H](O[C@@H]4O[C@H](CO)[C@@H](O)[C@H](O)[C@H]4O[C@@H]4O[C@H](CO)[C@@H](O)[C@H](O)[C@H]4O)C(C)(C)[C@@H]3CC[C@]12C` [Compound 9, ginsenoside-Rd]: below 4.00; for `CC(C)=CCC[C@](C)(O[C@@H]1O[C@H](CO)[C@@H](O)[C@H](O)[C@H]1O)[C@H]1CC[C@]2(C)[C@@H]1[C@H](O)C[C@@H]1[C@@]3(C)CC[C@H](O)C(C)(C)[C@@H]3[C@@H](O)C[C@]12C` [Compound 14, ginsenoside-F1]: below 4.00.
